From ChEMBL document CHEMBL3588806, “Generation of Broad-Spectrum Antifungal Drug Candidates from the Natural Product Compound Aureobasidin A” (ACS Med Chem Lett, 2015)
In brackets after ≈: the same amount, converted by molar mass. Starred links: 1 amine or outer side, 2 acyl side, 3 side chain; linkers in the order of their positions; H or OH if unused. Non-standard residues stand in square brackets, D forms with d. Residues, ends and D or L forms follow the SMILES beside them. NMePhe(3-(3-pyridyl)) = CN[C@@H](Cc1cccc(-c2cccnc2)c1)C(=O)O; X1 = CC[C@@H](C)[C@@H](O[*:1])C(=O)[*:2]; Hmp(2R,3S) = CC[C@H](C)[C@@H](O)C(=O)O; NMeVal(β-OH) = CN[C@H](C(=O)O)C(C)(C)O; NMeF = CN[C@@H](Cc1ccccc1)C(=O)O; aIle = CC[C@@H](C)[C@H](N)C(=O)O; NMeV = CN[C@H](C(=O)O)C(C)C

Columns and labels:
Aspergillus flavus [1] = assay: Antifungal activity against Aspergillus flavus ATCC 64025 by broth dilution method; assay type: functional
Cryptococcus neoformans = assay: Antifungal activity against Cryptococcus neoformans ATCC […] by broth dilution method; assay type: functional
Pichia kudriavzevii [2] = assay: Antifungal activity against Issatchenkia orientalis ATCC 6258 by broth dilution method; assay type: functional
Candida parapsilosis [3] = assay: Antifungal activity against Candida parapsilosis ATCC 90018 by broth dilution method; assay type: functional; conditions: Lodderomyces parapsilosis
Aspergillus nidulans = assay: Antifungal activity against Emericella nidulans ATCC 96921 by broth dilution method; assay type: functional
Aspergillus fumigatus [4] = assay: Antifungal activity against Aspergillus fumigatus ATCC MYA-32626 by broth dilution method; assay type: functional
Fusarium oxysporum = assay: Antifungal activity against Fusarium oxysporum ATCC 48112 by broth dilution method; assay type: functional
Candida albicans [5] = assay: Antifungal activity against Candida albicans ATCC 10231 by broth dilution method; assay type: functional
Aspergillus ochraceus = assay: Antifungal activity against Aspergillus ochraceus ATCC 96919 by broth dilution method; assay type: functional
[6] = system: Meyerozyma guilliermondii; assay: Antifungal activity against Candida guilliermondii ATCC 34134 by broth dilution method; assay type: functional
Aspergillus fumigatus [7] = assay: Antifungal activity against Aspergillus fumigatus ATCC 20435 by broth dilution method; assay type: functional
Sporothrix schenckii = assay: Antifungal activity against Sporothrix schenckii ATCC 14284 by broth dilution method; assay type: functional
[8] = system: Trichophyton mentagrophytes; assay: Antifungal activity against Trichophyton mentagrophytes ATCC MYA-4439 by broth dilution method; assay type: functional
Aspergillus flavus [9] = assay: Antifungal activity against Aspergillus flavus ATCC 22546 by broth dilution method; assay type: functional
Aspergillus niger [10] = assay: Antifungal activity against Aspergillus niger ATCC 16888 by broth dilution method; assay type: functional
Aspergillus clavatus = assay: Antifungal activity against Aspergillus clavatus ATCC 10058 by broth dilution method; assay type: functional
Aspergillus flavus [11] = assay: Antifungal activity against Aspergillus flavus ATCC 204304 by broth dilution method; assay type: functional
[12] = system: Trichophyton mentagrophytes; assay: Antifungal activity against Trichophyton mentagrophytes ATCC 28185 by broth dilution method; assay type: functional
Pichia kudriavzevii [13] = assay: Antifungal activity against Candida krusei ATCC 14243 by broth dilution method; assay type: functional
Candida parapsilosis [14] = assay: Antifungal activity against Candida parapsilosis ATCC 22019 by broth dilution method; assay type: functional; conditions: Lodderomyces parapsilosis
Trichophyton rubrum = assay: Antifungal activity against Trichophyton rubrum ATCC MYA-4438 by broth dilution method; assay type: functional
Candida albicans [15] = assay: Antifungal activity against Candida albicans ATCC 204276 by broth dilution method; assay type: functional
Candida albicans [16] = assay: Antifungal activity against Candida albicans ATCC 90029 by broth dilution method; assay type: functional
Clavispora lusitaniae = assay: Antifungal activity against Candida lusitaniae ATCC 66035 by broth dilution method; assay type: functional
Rhizopus arrhizus = assay: Antifungal activity against Rhizopus oryzae ATCC 11886 by broth dilution method; assay type: functional
Saccharomyces cerevisiae = assay: Antifungal activity against Saccharomyces cerevisiae ATCC 7754 by broth dilution method; assay type: functional
Candida tropicalis [17] = assay: Antifungal activity against Candida tropicalis ATCC 90874 by broth dilution method; assay type: functional
Candida albicans [18] = assay: Antifungal activity against Candida albicans ATCC 24433 by broth dilution method; assay type: functional
Candida albicans [19] = assay: Antifungal activity against Candida albicans ATCC MYA-2732 by broth dilution method; assay type: functional
Candida albicans [20] = assay: Antifungal activity against Candida albicans ATCC 90028 by broth dilution method; assay type: functional
Candida tropicalis [21] = assay: Antifungal activity against Candida tropicalis ATCC 750 by broth dilution method; assay type: functional
Aspergillus niger [22] = assay: Antifungal activity against Aspergillus niger ATCC 64028 by broth dilution method; assay type: functional
Aspergillus candidus = assay: Antifungal activity against Aspergillus candidus ATCC 13686 by broth dilution method; assay type: functional
Nakaseomyces glabratus = assay: Antifungal activity against Candida glabrata ATCC 90030 by broth dilution method; assay type: functional
Aspergillus fumigatus [23] = assay: Antifungal activity against Aspergillus fumigatus by broth dilution method; assay type: functional
Candida albicans [24] = assay: Antifungal activity against Candida albicans by broth dilution method; assay type: functional
[25] = Ratio of MIC for Aspergillus fumigatus to MIC for Candida albicans; assay type: functional
[26] = Time dependent inhibition of Candida albicans ATCC 38247 membrane inositol phosphorylceramide synthase using ceramide as substrate

C[C@@H]1[C@H](O)[C@@H](C)/C=C/C=C/C=C/C=C/C=C/C=C/C=C/[C@H](O[C@@H]2O[C@H](C)[C@@H](O)[C@H](N)[C@@H]2O)C[C@@H]2O[C@](O)(C[C@@H](O)C[C@@H](O)[C@H](O)CC[C@@H](O)C[C@@H](O)CC(=O)O[C@H]1C)C[C@H](O)[C@H]2C(=O)O [AMPHOTERICIN B]
MIC (Aspergillus flavus [1]): 0.5 mg/L (≈ 0.541 µM)
MIC (Cryptococcus neoformans): 0.015 mg/L (≈ 0.0162 µM)
MIC (Pichia kudriavzevii [2]): 0.125 mg/L (≈ 0.135 µM)
MIC (Candida parapsilosis [3]): 0.06 mg/L (≈ 0.0649 µM)
MIC (Aspergillus nidulans): 1 mg/L (≈ 1.08 µM)
MIC (Aspergillus fumigatus [4]): 0.25 mg/L (≈ 0.271 µM)
MIC (Fusarium oxysporum): 1 mg/L (≈ 1.08 µM)
MIC (Candida albicans [5]): 0.03 mg/L (≈ 0.0325 µM)
MIC (Aspergillus ochraceus): 0.25 mg/L (≈ 0.271 µM)
MIC [6]: 0.008 mg/L (≈ 0.00866 µM)
MIC (Aspergillus fumigatus [7]): 0.25 mg/L (≈ 0.271 µM)
MIC (Sporothrix schenckii): 0.5 mg/L (≈ 0.541 µM)
MIC [8]: 0.06 mg/L (≈ 0.0649 µM)
MIC (Aspergillus flavus [9]): 0.25 mg/L (≈ 0.271 µM)
MIC (Aspergillus niger [10]): 0.03 mg/L (≈ 0.0325 µM)
MIC (Aspergillus clavatus): 0.004 mg/L (≈ 0.00433 µM)
MIC (Aspergillus flavus [11]): 0.25 mg/L (≈ 0.271 µM)
MIC [12]: 0.06 mg/L (≈ 0.0649 µM)
MIC (Pichia kudriavzevii [13]): 0.125 mg/L (≈ 0.135 µM)
MIC (Candida parapsilosis [14]): 0.125 mg/L (≈ 0.135 µM)
MIC (Trichophyton rubrum): 0.03 mg/L (≈ 0.0325 µM)
MIC (Candida albicans [15]): 0.06 mg/L (≈ 0.0649 µM)
MIC (Candida albicans [16]): 0.03 mg/L (≈ 0.0325 µM)
MIC (Clavispora lusitaniae): 0.015 mg/L (≈ 0.0162 µM)
MIC (Rhizopus arrhizus): 0.03 mg/L (≈ 0.0325 µM)
MIC (Saccharomyces cerevisiae): 0.06 mg/L (≈ 0.0649 µM)
MIC (Candida tropicalis [17]): 0.06 mg/L (≈ 0.0649 µM)
MIC (Candida albicans [18]): 0.03 mg/L (≈ 0.0325 µM)
MIC (Candida albicans [19]): 0.06 mg/L (≈ 0.0649 µM)
MIC (Candida albicans [20]): 0.03 mg/L (≈ 0.0325 µM)
MIC (Candida tropicalis [21]): 0.06 mg/L (≈ 0.0649 µM)
MIC (Aspergillus niger [22]): 0.015 mg/L (≈ 0.0162 µM)
MIC (Aspergillus candidus): 0.03 mg/L (≈ 0.0325 µM)
MIC (Nakaseomyces glabratus): 0.03 mg/L (≈ 0.0325 µM)

CC[C@H](C)[C@@H]1NC(=O)[C@@H]2CCCN2C(=O)[C@H](Cc2cccc(-c3cccnc3)c2)N(C)C(=O)[C@H](Cc2ccccc2)NC(=O)[C@H](C(C)C)N(C)C(=O)[C@@H]([C@@H](C)CC)OC(=O)[C@H](C(C)(C)O)N(C)C(=O)[C@H](CC(C)C)NC(=O)[C@H](C(C)C)N(C)C1=O (cyclo(F[NMePhe(3-(3-pyridyl))]PI[NMeV]L[NMeVal(β-OH)][Hmp(2R,3S)][NMeV]))
MIC (Aspergillus flavus [1]): 1 mg/L (≈ 0.849 µM)
MIC (Cryptococcus neoformans): 0.03 mg/L (≈ 0.0255 µM)
MIC (Pichia kudriavzevii [2]): 0.06 mg/L (≈ 0.0509 µM)
MIC (Candida parapsilosis [3]): 0.03 mg/L (≈ 0.0255 µM)
MIC (Aspergillus nidulans): 0.125 mg/L (≈ 0.106 µM)
MIC (Aspergillus fumigatus [4]): 2 mg/L (≈ 1.7 µM)
MIC (Fusarium oxysporum): > 64 mg/L
MIC (Candida albicans [5]): 1 mg/L (≈ 0.849 µM)
MIC (Aspergillus ochraceus): 0.25 mg/L (≈ 0.212 µM)
MIC [6]: 0.03 mg/L (≈ 0.0255 µM)
MIC (Aspergillus fumigatus [7]): 1 mg/L (≈ 0.849 µM)
MIC (Aspergillus fumigatus [23]): < 0.94 mg/L
MIC (Sporothrix schenckii): > 64 mg/L
MIC [8]: 0.5 mg/L (≈ 0.424 µM)
MIC (Aspergillus flavus [9]): 2 mg/L (≈ 1.7 µM)
MIC (Aspergillus niger [10]): 0.125 mg/L (≈ 0.106 µM)
MIC (Aspergillus clavatus): 0.03 mg/L (≈ 0.0255 µM)
MIC (Aspergillus flavus [11]): 1 mg/L (≈ 0.849 µM)
MIC [12]: 1 mg/L (≈ 0.849 µM)
MIC (Pichia kudriavzevii [13]): 0.06 mg/L (≈ 0.0509 µM)
MIC (Candida albicans [24]): < 0.05 mg/L
MIC (Candida parapsilosis [14]): 0.06 mg/L (≈ 0.0509 µM)
MIC (Trichophyton rubrum): 2 mg/L (≈ 1.7 µM)
MIC (Candida albicans [15]): 0.03 mg/L (≈ 0.0255 µM)
MIC (Candida albicans [16]): 0.5 mg/L (≈ 0.424 µM)
MIC (Clavispora lusitaniae): 0.125 mg/L (≈ 0.106 µM)
MIC (Rhizopus arrhizus): > 64 mg/L
Ratio [25]: > 10
MIC (Saccharomyces cerevisiae): 0.03 mg/L (≈ 0.0255 µM)
MIC (Candida tropicalis [17]): 0.015 mg/L (≈ 0.0127 µM)
MIC (Candida albicans [18]): 0.125 mg/L (≈ 0.106 µM)
MIC (Candida albicans [19]): 0.03 mg/L (≈ 0.0255 µM)
MIC (Candida albicans [20]): 0.015 mg/L (≈ 0.0127 µM)
MIC (Candida tropicalis [21]): 0.03 mg/L (≈ 0.0255 µM)
MIC (Aspergillus niger [22]): 0.03 mg/L (≈ 0.0255 µM)
MIC (Aspergillus candidus): 0.008 mg/L (≈ 0.00679 µM)
MIC (Nakaseomyces glabratus): 0.03 mg/L (≈ 0.0255 µM)

CC[C@@H](C)[C@@H]1NC(=O)[C@@H]2CCCN2C(=O)[C@H](Cc2ccccc2)N(C)C(=O)[C@H](Cc2ccccc2)NC(=O)[C@H](C(C)C)N(C)C(=O)[C@@H]([C@H](C)CC)OC(=O)[C@H](C(C)(C)O)N(C)C(=O)[C@H](CC(C)C)NC(=O)[C@H](C(C)C)N(C)C1=O [AUREOBASIDIN A] (cyclo(F[NMeF]P[aIle][NMeV]L[NMeVal(β-OH)][X1][NMeV]))
Ki [26]: 0.2 nM
MIC (Aspergillus fumigatus [23]): > 25 mg/L
MIC (Candida albicans [24]): < 0.05 mg/L
